Data: PMC9986876, “Prediction of Antileishmanial Compounds: General Model, Preparation, and Evaluation of 2-Acylpyrrole Derivatives” (Journal of Chemical Information and Modeling, 2022)

What was measured:
[1] = test system: L. amazonensis (MHOM/Br/79/Maria) promastigotes; test: In vitro promastigote susceptibility assay (resazurin); assay type: cell-based; conditions: for SI (selectivity index, SI = CC50/IC50): CC50 J774 / IC50 L. amazonensis promastigotes; for IC50: Leishmania amazonensis; for IC50 / IC50 ± SD: L. amazonensis promastigotes, 48 h at 26 °C, triplicate, N/A = not active at 100 μg/mL
Protocol: (§1) The following species of Leishmania were used: L. donovani (MHOM/IN/80/DD8) was purchased (ATCC, USA) and L. amazonensis (MHOM/Br/79/Maria) was kindly provided by Prof. Alfredo Toraño (Instituto de Salud Carlos III, Madrid). Promastigotes were cultured in Schneider’s insect medium supplemented with 10% heat-inactivated fetal bovine serum (FBS) and 1000 U/L of penicillin plus 100 mg/L of streptomycin in 25 mL culture flasks at 26 °C. […] New samples of the compounds have been prepared according to the protocol described above, and subsequently solutions of the chemical compound to be assayed have been dissolved in DMSO at 50 mg/mL. […] Growth control and signal-to-noise control were also included. The final solvent (DMSO) concentrations never exceeded 0.5% (v/v) warranting no effect on parasite proliferation or morphology. After 48 h at 26 °C, 20 μL of a 2.5 mM resazurin solution was added to each well and the plates were returned to the incubator for another 3 h. […] Growth inhibition (%) was calculated by 100 – [(RFU treated wells – RFU signal-to-noise)/(RFU untreated – RFU signal-to-noise) × 100]. All tests were carried out in triplicate. Miltefosine (Sigma-Merck, Madrid, Spain) was used as the reference drug and was evaluated under the same conditions. […] The selectivity index (SI) was calculated as the ratio between cytotoxicity (CC50) and activity against parasites (IC50).

[2] = test system: L. donovani (MHOM/IN/80/DD8) promastigotes; test: as above; assay type: cell-based; conditions: for IC50: Leishmania donovani, L. donovani promastigotes, 48 h at 26 °C, triplicate, N/A = not active at 100 μg/mL; for SI (selectivity index, SI = CC50/IC50): CC50 J774 / IC50 L. donovani promastigotes
Protocol: as §1

[3] = Cytotoxicity assay on macrophages (resazurin); assay type: cell-based, BALB/c mice; conditions: mouse, J774 macrophages, macrophages J774, 24 h exposure, Table 2; values marked e correspond to 100 μg/mL, the higher dose tested
Protocol: The assay was carried out as previously described.[30] J774 macrophages cell lines were seeded (5 × 10^4 cells/well) in 96-well flat-bottom microplates with 100 μL of RPMI 1640 medium. The cells were allowed to attach for 24 h at 37 °C and 5% CO2, and the medium was replaced by different concentrations of the compounds in 200 μL of medium and exposed for another 24 h. Growth controls and signal-to-noise were also included. Afterward, a volume of 20 μL of 2.5 mM resazurin solution was added, and plates were returned to the incubator for another 3 h to evaluate cell viability. The reduction of resazurin was determined by fluorometry as in the promastigote assay. Each concentration was assayed three times.

Row | SMILES | IC50 [1] | IC50 [2] | IC50 ± SD [1] | SI (selectivity index, SI = CC50/IC50) [1] | CC50 at 24 h [3] | SI (selectivity index, SI = CC50/IC50) [2]
1 | COc1cc(OC)cc(C(=O)c2cccn2-c2ncccn2)c1 [5aj] | 32.5 ± 0.64 µM | 211 ± 32.8 µM | – | >2.71 | 88.3 ± 3.36 µM | >0.42
2 | O=C(c1cc(C(F)(F)F)cc(C(F)(F)F)c1)c1cccn1-c1ncccn1 [5am] | 57.34 ± 0.25 µM | 199 ± 25.4 µM | – | >4.53 | > 260 µM | >1.31
3 | COc1ccc(C(=O)c2cccn2-c2ncccn2)c(OC)c1 [5al] | > 100 µg/mL | > 100 µg/mL | – | – | 224 ± 46.9 µM | –
4 | Cc1cccnc1-n1cccc1C(=O)c1ccc(F)cc1 [5bd] | 16.9 ± 0.73 µM | 7.78 ± 0.27 µM | – | – | 137 ± 36.4 µM | >23.15
5 | COc1cc(OC)cc(C(=O)c2cccn2-c2ncccc2C)c1 [5bj] | 71.1 ± 7.81 µM | 43.5 ± 0.59 µM | – | >1.53 | 108 ± 5.76 µM | –
6 | O=C(c1ccc(C(F)(F)F)cc1)c1cccn1-c1ncccn1 [5ai] | 48 ± 1.61 µM | 42.8 ± 0.61 µM | – | >3.13 | 150 ± 49.4 µM | >3.51
7 | COc1cc(C(=O)c2cccn2-c2ncccn2)cc(OC)c1OC [5ak] | > 100 µg/mL | > 100 µg/mL | inactive | – | 87.3 ± 7.37 µM | –
8 | Cc1cccnc1-n1cccc1C(=O)c1ccoc1 [5bs] | > 100 µg/mL | > 100 µg/mL | – | – | > 396 µM | –
9 | COc1cc(C(=O)c2cccn2-c2ncccc2C)cc(OC)c1OC [5bk] | > 100 µg/mL | > 100 µg/mL | inactive | – | 284 µM | –
10 | Cc1cccnc1-n1cccc1C(=O)c1ccccc1 [5ba] | 153 ± 21.6 µM | > 100 µg/mL | – | >2.50 | > 381 µM | –
11 | COc1ccc(C(=O)c2cccn2-c2ncccc2C)cc1 [5bo] | 224 ± 14.7 µM | 173 ± 60.3 µM | – | >1.53 | > 342 µM | >1.98
12 | Cc1cccnc1-n1cccc1C(=O)c1ccn(C(C)(C)C)c1 [5bq] | 209 ± 4.69 µM | 92.8 ± 7.68 µM | – | >1.56 | > 325 µM | –
13 | Cc1cccnc1-n1cccc1C(=O)c1ccc(C#N)cc1 [5bg] | 192 ± 12 µM | 315 ± 60.8 µM | – | >1.81 | > 348 µM | >1.10
14 | Cc1cccnc1-n1cccc1C(=O)c1cccc(OCc2ccccc2)c1 [5bp] | 208 ± 23.6 µM | 184 ± 8.67 µM | – | >1.31 | > 357 µM | >1.47

Now from value to compound, other results behind:

Row | IC50 [1] | IC50 [2] | IC50 ± SD [1] | SMILES | SI (selectivity index, SI = CC50/IC50) [1] | CC50 at 24 h [3] | SI (selectivity index, SI = CC50/IC50) [2]
15 | 260 ± 40.7 µM | > 100 µg/mL | – | O=C(c1ccccc1)c1cccn1-c1ncccn1 [5aa] | >1.55 | > 401 µM | –
16 | 36.1 ± 1.23 µM | 58.5 ± 3.34 µM | – | O=C(c1ccc2ccccc2c1)c1cccn1-c1ncccn1 [5an] | >3.12 | 113 ± 39.2 µM | >1.93
17 | > 100 µg/mL | > 100 µg/mL | – | O=C(c1ccc([N+](=O)[O-])cc1)c1cccn1-c1ncccn1 [5ah] | – | > 340 µM | –
18 | 32.9 ± 0.74 µM | 58.5 ± 7.04 µM | – | CC(C)(C)c1ccc(C(=O)c2cccn2-c2ncccn2)cc1 [5ac] | >2.77 | 91 ± 6.55 µM | >1.55
19 | > 100 µg/mL | > 100 µg/mL | inactive | O=C(c1ccc(F)cc1)c1cccn1-c1ncccn1 [5ad] | – | 270 ± 26.3 µM | –
20 | 117 ± 10.9 µM | 190 ± 6.76 µM | – | O=C(c1ccc(Cl)cc1)c1cccn1-c1ncccn1 [5ae] | >3.01 | > 352 µM | >1.86
